Laboratory results taken from ChEMBL document CHEMBL3352505, “Pentacycloundecylamines and conjugates thereof as chemosensitizers and reversed chloroquine agents” (Bioorg Med Chem Lett, 2014).

Assays:
Plasmodium falciparum [1] = assay: Antimicrobial activity against chloroquine-sensitive Plasmodium falciparum D10; assay type: functional
Plasmodium falciparum [2] = assay: Antimicrobial activity against chloroquine-resistant Plasmodium falciparum Dd2; assay type: functional
CHO = assay: Cytotoxicity against CHO cells by MTT assay; assay type: cell-based, Cricetulus griseus; conditions: for IC50: Cricetulus griseus, CHO
Plasmodium falciparum [3] = assay: Resistance index, ratio of IC50 for chloroquine-resistant Plasmodium falciparum Dd2 to IC50 for chloroquine-sensitive Plasmodium falciparum D10; assay type: functional
[4] = Selectivity index, ratio of IC50 for CHO cells to IC50 for chloroquine-sensitive Plasmodium falciparum D10; assay type: toxicity, cell-based; conditions: hamster; read-out: Ratio IC50
Plasmodium falciparum [5] = assay: Ratio of chloroquine IC50 to compound IC50 for chloroquine-resistant Plasmodium falciparum Dd2; assay type: functional
Plasmodium falciparum [6] = assay: Resistance modification index, ratio of IC50 for chloroquine in presence of 10 uM compound to IC50 for chloroquine alone for chloroquine-resistant Plasmodium falciparum Dd2; assay type: functional
Plasmodium falciparum [7] = assay: Resistance modification index, ratio of IC50 for chloroquine in presence of 1 uM compound to IC50 for chloroquine alone for chloroquine-resistant Plasmodium falciparum Dd2; assay type: functional

SMILES	IC50 (Plasmodium falciparum [1]) [nM]	IC50 (Plasmodium falciparum [2]) [nM]	IC50 (CHO) [nM]	Ratio IC50 (Plasmodium falciparum [3])	selectivity ratio [4]	Ratio IC50 (Plasmodium falciparum [5])	Ratio IC50 (Plasmodium falciparum [6])	Activity (CHO; chinese hamster, cho)	Ratio IC50 (Plasmodium falciparum [7])
OC12C3C4CC5C6C4C1C6C(C53)N2CCNc1ccnc2cc(Cl)ccc12 (configuration not stated)	3.74	27.6	9540	7	2550	5			
OC12C3C4CC5C6C4C1C6C(C53)N2CCCCNc1ccnc2cc(Cl)ccc12 (configuration not stated)	8.45	187	2390	22	283				
CC[C@H]1CN2CCc3cc(OC)c(OC)cc3[C@@H]2C[C@@H]1C[C@H]1NCCc2cc(OC)c(OC)cc21 [EMETINE]			61						
OC12C3C4CC5C6C4C1C6C(C53)N2CCCCCCNc1ccnc2cc(Cl)ccc12 (configuration not stated)	17.6	253	2630	14	149				
c1ccc(CNC23OC4C5C6CC(C7C6C4C72)C53)cc1 (configuration not stated)	> 2000	> 2000					0.48	Non-toxic	0.6
